In BindingDB's records for doi:10.3109/14756366.2013.827675 (Orchid Chemicals & Pharmaceuticals Limited, 2014):

Each compound was assayed against Histone deacetylase 1/11/4/6/8 (assay: HDAC Activity screening).
Experimental: Histone Deacetylase (HDAC) Inhibition Assay using Boc-Lys(Ac)-AMC Substrate: Inhibition of HDAC has been implicated to modulate transcription and to induce apoptosis or differentiation in cancer cells. The fluorometric assay provides a fast and fluorescence based method that eliminates radioactivity, extractions or chromatography, as used in traditional assays. The assay is based on two steps. First, the HDAC fluorometric substrate, which comprises an acetylated lysine side chain, is incubated with a sample containing HDAC activity (Mouse Liver Extract). Deacetylation of the substrate sensitizes the substrate; in the second step, treatment with the Trypsin, stop solution produces a fluorophore that can be easily analyzed using fluorescence plate reader. Assay was done in 96-well black microplate and total volume of the assay was […]. Mouse liver enzyme (10 mg/mL) was diluted 1:6 with HDAC buffer. Enzyme cocktail was made of 10 mL of diluted enzyme and 30 mL of HDAC buffer. Forty m

Row | IC50 | SMILES
1 | 32 nM | COc1ccc2c(c1)c(=O)c(C(=O)Nc1ccccc1)cn2CCCCC(=O)NO [Quinolone-based HDAC inhibitor 4k]
2 | 28 nM | COc1ccc(NC(=O)c2cn(CCCCC(=O)NO)c3ccc(F)cc3c2=O)cc1 [Quinolone-based HDAC inhibitor 4r]
3 | 75 nM | COc1ccc(NC(=O)c2cn(CCCCC(=O)NO)c3ccc(OC)cc3c2=O)cc1 [Quinolone-based HDAC inhibitor 4m]
4 | 39 nM | COc1ccc(NC(=O)c2cn(CCCCC(=O)NO)c3ccccc3c2=O)cc1 [Quinolone-based HDAC inhibitor 4c]
5 | 39 nM | O=C(CCCCn1cc(C(=O)Nc2nc3ccccc3s2)c(=O)c2cc(F)ccc21)NO [Quinolone-based HDAC inhibitor 4v]
6 | 32 nM | O=C(CCCCn1cc(C(=O)Nc2ccccc2)c(=O)c2ccccc21)NO [Quinolone-based HDAC inhibitor 4a]
7 | 270 nM | O=C(CCCCn1cc(C(=O)Nc2ccc(F)cc2)c(=O)c2ccccc21)NO [Quinolone-based HDAC inhibitor 4b]
8 | 1.5 nM | O=C(CCCCn1cc(C(=O)Nc2nc3ccccc3s2)c(=O)c2ccccc21)NO [Quinolone-based HDAC inhibitor 4j]
9 | 95 nM | O=C(CCCCn1cc(C(=O)NC2=CC(c3ccccc3)N=N2)c(=O)c2ccccc21)NO (stereo not drawn) [Quinolone-based HDAC inhibitor 4w]
10 | 10 nM | COc1ccc2c(c1)c(=O)c(C(=O)Nc1cc(-c3ccccc3)nn1C)cn2CCCCC(=O)NO [Quinolone-based HDAC inhibitor 4o]
11 | 0.1 nM | Cc1csc(NC(=O)c2cn(CCCCC(=O)NO)c3ccccc3c2=O)n1 [Quinolone-based HDAC inhibitor 4i]
12 | 90 nM | O=C(CCCCn1cc(C(=O)Nc2ccncc2)c(=O)c2ccccc21)NO [Quinolone-based HDAC inhibitor 4g]
13 | 42 nM | O=C(CCCCn1cc(C(=O)Nc2nccs2)c(=O)c2ccccc21)NO [Quinolone-based HDAC inhibitor 4h]
14 | 32 nM | COc1ccc2c(c1)c(=O)c(C(=O)Nc1ccc(F)cc1)cn2CCCCC(=O)NO [Quinolone-based HDAC inhibitor 4l]
15 | 28 nM | COc1ccc2c(c1)c(=O)c(C(=O)Nc1nc3ccccc3s1)cn2CCCCC(=O)NO [Quinolone-based HDAC inhibitor 4p]
16 | 230 nM | COc1ccc(NC(=O)c2cn(CCCCC(=O)NO)c3ccc(F)cc3c2=O)cc1OC [Quinolone-based HDAC inhibitor 4t]
17 | 40 nM | O=C(CCCCn1cc(C(=O)Nc2ccc(F)cc2)c(=O)c2cc(F)ccc21)NO [Quinolone-based HDAC inhibitor 4q]
18 | 150 nM | COc1ccc2c(c1)c(=O)c(C(=O)Nc1ccc(OC)c(OC)c1)cn2CCCCC(=O)NO [Quinolone-based HDAC inhibitor 4n]
19 | 85 nM | O=C(CCCCn1cc(C(=O)Nc2ccncc2)c(=O)c2cc(F)ccc21)NO [Quinolone-based HDAC inhibitor 4u]

Row | SMILES | IC50
20 | COc1ccc(CNC(=O)c2cn(CCCCC(=O)NO)c3ccccc3c2=O)cc1 [Quinolone-based HDAC inhibitor 4e] | 410 nM
21 | COc1ccc(CNC(=O)c2cn(CCCCC(=O)NO)c3ccc(F)cc3c2=O)cc1 [Quinolone-based HDAC inhibitor 4s] | 330 nM
22 | O=C(CCCCn1cc(C(=O)NCc2cccs2)c(=O)c2ccccc21)NO [Quinolone-based HDAC inhibitor 4f] | 390 nM
23 | O=C(CCCCn1cc(C(=O)NCc2ccccc2)c(=O)c2ccccc21)NO [Quinolone-based HDAC inhibitor 4d] | 120 nM
